Assay results: patent US10632121B2, “Platelet-derived growth factor receptor mutations and compositions and methods relating thereto” (MEMORIAL SLOAN KETTERING CANCER CENTER, priority 2014, dated 2020)
Where “and” joins values, the source holds several entries; their conditions need not be identical. Identical values can stand only once. Entries after “also recorded” stand apart in the source; their conditions may differ.

Experiments:
[1] = tested on: TS543 GBM cells (PDGFRA amplified); test: Cell proliferation and viability (Vi-Cell, trypan blue), TS543; assay type: cell-based, human; conditions: for cell death (% Trypan blue positive cells) / proliferation / growth inhibition: TS543, five day treatment
Procedure: For growth assays performed on non-adherent cell lines (primary human neurosphere lines and S5472 cells) cells were single cell disassociated with Accumax, then counted using the Beckman Coulter Vi-Cell XR Cell Viability Analyzer. Cells were plated in a 6 cm dish in triplicate for each vehicle or drug sample. After five days in culture, each plate was individually spun down, Accumax disassociated, and counted with the Vi-Cell. The Vi-Cell uses trypan blue-exclusion as a measure for viable cells, trypan blue positive cells were used to calculate the percentage of cell death in each sample. The average and standard error of the mean was graphed using GraphPad Prism 6.
(§1) SAR408 and SAR409 were provided by Sanofi. […] Antibodies for western blots were from Cell Signaling Technology with the following exceptions: actin (Sigma), total PDGFRA (Santa Cruz), and V5 epitope (Invitrogen). Western Blots were performed after four hours of drug treatment unless indicated otherwise. Electroluminescence was used to quantify phosphorylation of Akt and S6 ribosomal protein (FIG. 1B) (Meso Scale Discovery cat # K15100D-1 and cat # K150DGD-1). Cell Proliferation and Viability Assays were performed using a Beckman Coulter Vi-Cell XR Cell Viability Analyzer after five days of drug treatment unless indicated otherwise.

TS543 GBM cells = test: Western blot of pathway signaling, TS543; assay type: cell-based, human; conditions: for PI3K/mTOR pathway inhibition (Western blot): TS543, four hour treatment
Procedure: (§2) Cell lysates for western blots were harvested in cell lysis buffer (Cell Signaling 9803) supplemented with a protease inhibitor cocktail (Calbiochem cocktail II 524625) and phosphatase inhibitor cocktail (Calbiochem cocktail III 524627). Lysates were sonicated, centrifuged, then quantified (Bio-Rad DC Protein Assay 500-0113, 500-0114, and 500-0115). Samples were normalized to one another, then a reducing loading buffer was added. Samples were run on SDS-PAGE gels and semi-dry transferred to nitrocellulose membranes.
as §1

mTOR = mTOR (Homo sapiens, UniProt P42345); conditions: cited from earlier work
[2] = tested on: H1703 human non-small cell lung cancer cells (PDGFRA amplified); test: Cell proliferation and viability (Vi-Cell, trypan blue), H1703; assay type: cell-based; conditions: H1703, five day treatment
Procedure: Growth assays performed on adherent cell lines were trypsanized, counted, and plated into 6 cm dishes. The next day media was removed, and replaced with reduced serum media (5% FBS) with drug or vehicle in triplicate for each concentration. After five days in culture, cells were analyzed in the same manner as non-adherent lines.
as §1

[3] = tested on: S5472 GBM cells (PDGFB driven); test: Cell proliferation and viability (Vi-Cell, trypan blue), S5472; assay type: cell-based, mouse; conditions: for cell death (% Trypan blue positive cells) / proliferation / growth inhibition: S5472, five day treatment
H1703 cells = test: Western blot of pathway signaling, H1703; assay type: cell-based, human
Procedure: as §2, §1

PI3K/mTOR pathway = test: Clinical trial: IHC of PI3K/mTOR pathway markers in GBM tumor tissue; assay type: in vivo, human; conditions: patients treated 10-28 days before surgery
Procedure: To evaluate pharmacodynamic effects in tumor tissue, immuno-histochemistry (IHC) was performed with phosphorylation-site specific antibodies against four PI3K/mTOR pathway components: Proline-Rich Akt Substrate of 40-kDa (PRAS40, threonine246), ribosomal protein S6 kinase 1 (S6K1, threonine 389), eukaryotic translation initiation factor 4E-binding protein 1 (4E-BP1, threonine 37/46), and S6 Ribosomal Protein (S6RP, serine 235/236) (FIG. 1D). For each marker staining of several thousand tumor cells was quantified and the staining intensity in the “on-treatment”-biopsy (Surgery 2) was compared with the staining intensity in the tumor sample collected from the same patient at diagnosis (Surgery 1). This “matched-pair” analysis included 19/21 evaluable patients (Table 3) who received at least one dose of study drug, had detectable phospho-S6RP in the pre-treatment sample (Surgery 1), and had tissue of sufficient quality collected on treatment (Surgery 2).
The design of the trial allowed comparison of the initial glioma (Surgery 1) in these patients to the recurrent glioma which was treated with drug before surgical resection (Surgery 2). Immunohistochemical staining (IHC) was performed on the samples and pathway inhibition was measured via pS6 Ser235/6, pS6K1 Thr389, p4E-BP1 Thr37/46, and pPRAS40 Thr246 (FIG. 1E, upper panel). Cellular proliferation was measured via Ki-67 IHC. […]
Immunohistochemical (IHC) staining of patient samples was performed on formalin-fixed paraffin-embedded (FFPE) tumor tissues collected at the initial surgery and recurrent tumor surgery. […] Immunoreactivity was detected using NovaRED Peroxidase Substrate kit (Vector Labs SK-4800) and sections were counterstained with hematoxylin.
To analyze pathway inhibition, three representative tumor images from each slide stained with phospho-proteins were taken, after determining the presence of tumor cells based on hematoxylin staining evaluation. […] The tumor to normal ratio was calculated by dividing the average of the tumor images by the average of the normal tissue image. […]

glioblastoma tumor cells = test: Clinical trial: Ki-67 IHC tumor cell proliferation; assay type: in vivo, human
Procedure: The design of the trial allowed comparison of the initial glioma (Surgery 1) in these patients to the recurrent glioma which was treated with drug before surgical resection (Surgery 2). Immunohistochemical staining (IHC) was performed on the samples and pathway inhibition was measured via pS6 Ser235/6, pS6K1 Thr389, p4E-BP1 Thr37/46, and pPRAS40 Thr246 (FIG. 1E, upper panel). Cellular proliferation was measured via Ki-67 IHC. These IHC measurements were compared to one another and reported as a percentage decrease or increase of Surgery2/Surgery 1. Samples which had reduction of all four phospho-protein measurements in Surgery 2 also had the greatest relative decreases in cellular proliferation (FIG. 1E, lower panel). Samples which had no inhibition of any pharmacodynamic biomarker or inhibition of only one pharmacodynamic biomarker were most likely to see a relative increase in proliferation.
To compare the relative change in cellular proliferation in the three drug arms and a drug naïve population, a control population was formed of patients who had not been treated with any PI3K inhibitor and surgical samples available from two surgical resections and compared their relative proliferation via Ki-67 IHC (FIG. 12A). This control group was compared with the three arms of the trial. […] There was no statistically significant change in proliferation between the control group and the other arms of the trial.
To determine the Ki-67 labeling index, slides were analyzed as with the phospho-proteins, and the number of positively stained and total number of cells was determined for each image. The percentage of Ki-67 positive cells was calculated for each image, then the three images were averaged.

recurrent glioblastoma = test: Clinical trial: time to progression and tumor response; assay type: in vivo, human
[4] = Clinical trial: primary reason for discontinuation from study treatment; assay type: in vivo, human; conditions: SAR408 200 mg once daily (N = 6)
Source text: All 21 patients discontinued treatment prior to receiving 1 year of postsurgery treatment. Time to tumor progression (TTP) for all patients is presented FIG. 2A.

PI3Kα = PI3Kα (Homo sapiens, UniProt P42336); conditions: cited from earlier work
Sequence of PI3Kα (P42336 whole entry): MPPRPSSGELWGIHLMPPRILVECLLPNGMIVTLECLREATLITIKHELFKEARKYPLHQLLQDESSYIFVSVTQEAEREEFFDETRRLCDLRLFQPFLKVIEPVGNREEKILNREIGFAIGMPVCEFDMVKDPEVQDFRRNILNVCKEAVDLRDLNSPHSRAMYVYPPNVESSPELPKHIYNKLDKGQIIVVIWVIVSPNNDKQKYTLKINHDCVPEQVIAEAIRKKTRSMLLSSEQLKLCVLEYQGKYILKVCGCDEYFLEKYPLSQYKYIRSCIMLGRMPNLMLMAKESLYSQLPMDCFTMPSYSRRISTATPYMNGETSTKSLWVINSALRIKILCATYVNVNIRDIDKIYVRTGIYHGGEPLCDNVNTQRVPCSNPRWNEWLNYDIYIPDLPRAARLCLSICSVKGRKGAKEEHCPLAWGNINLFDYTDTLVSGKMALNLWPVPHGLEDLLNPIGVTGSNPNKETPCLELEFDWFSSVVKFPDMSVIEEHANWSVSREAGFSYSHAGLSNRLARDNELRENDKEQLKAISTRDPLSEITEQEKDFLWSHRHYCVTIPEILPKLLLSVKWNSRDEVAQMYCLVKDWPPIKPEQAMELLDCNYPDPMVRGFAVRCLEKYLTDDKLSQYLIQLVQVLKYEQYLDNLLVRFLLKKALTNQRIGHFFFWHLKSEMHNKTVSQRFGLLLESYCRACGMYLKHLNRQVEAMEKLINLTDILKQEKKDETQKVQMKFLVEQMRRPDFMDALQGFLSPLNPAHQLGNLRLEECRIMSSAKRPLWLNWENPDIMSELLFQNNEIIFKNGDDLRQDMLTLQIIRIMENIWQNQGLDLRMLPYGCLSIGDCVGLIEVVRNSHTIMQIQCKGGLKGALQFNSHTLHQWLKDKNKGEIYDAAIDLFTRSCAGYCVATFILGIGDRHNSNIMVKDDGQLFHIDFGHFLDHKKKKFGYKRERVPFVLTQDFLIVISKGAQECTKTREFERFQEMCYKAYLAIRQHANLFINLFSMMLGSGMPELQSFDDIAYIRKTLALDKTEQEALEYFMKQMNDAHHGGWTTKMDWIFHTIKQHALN
Sequence of PI3Kα (P27986 whole entry partner): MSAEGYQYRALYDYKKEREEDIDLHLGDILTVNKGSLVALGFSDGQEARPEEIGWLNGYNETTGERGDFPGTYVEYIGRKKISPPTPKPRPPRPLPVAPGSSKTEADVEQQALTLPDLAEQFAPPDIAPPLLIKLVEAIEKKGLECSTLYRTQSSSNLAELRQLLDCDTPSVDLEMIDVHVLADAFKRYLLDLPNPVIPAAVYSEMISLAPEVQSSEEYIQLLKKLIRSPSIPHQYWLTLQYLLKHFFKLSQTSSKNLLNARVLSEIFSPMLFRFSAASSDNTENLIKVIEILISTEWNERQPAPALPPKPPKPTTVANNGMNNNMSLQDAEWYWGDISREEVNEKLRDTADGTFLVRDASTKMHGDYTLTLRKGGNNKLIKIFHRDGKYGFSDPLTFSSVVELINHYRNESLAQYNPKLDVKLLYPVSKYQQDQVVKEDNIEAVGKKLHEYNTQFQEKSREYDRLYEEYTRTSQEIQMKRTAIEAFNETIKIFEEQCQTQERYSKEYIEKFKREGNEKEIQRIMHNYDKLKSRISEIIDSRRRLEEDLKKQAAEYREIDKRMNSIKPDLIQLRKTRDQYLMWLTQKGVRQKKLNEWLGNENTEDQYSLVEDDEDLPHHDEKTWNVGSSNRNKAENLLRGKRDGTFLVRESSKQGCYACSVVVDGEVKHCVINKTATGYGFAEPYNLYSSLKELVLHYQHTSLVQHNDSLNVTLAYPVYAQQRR

PI3Kβ = PI3Kβ (Homo sapiens, UniProt P42338); conditions: cited from earlier work
Sequence of PI3Kβ (P42338 whole entry): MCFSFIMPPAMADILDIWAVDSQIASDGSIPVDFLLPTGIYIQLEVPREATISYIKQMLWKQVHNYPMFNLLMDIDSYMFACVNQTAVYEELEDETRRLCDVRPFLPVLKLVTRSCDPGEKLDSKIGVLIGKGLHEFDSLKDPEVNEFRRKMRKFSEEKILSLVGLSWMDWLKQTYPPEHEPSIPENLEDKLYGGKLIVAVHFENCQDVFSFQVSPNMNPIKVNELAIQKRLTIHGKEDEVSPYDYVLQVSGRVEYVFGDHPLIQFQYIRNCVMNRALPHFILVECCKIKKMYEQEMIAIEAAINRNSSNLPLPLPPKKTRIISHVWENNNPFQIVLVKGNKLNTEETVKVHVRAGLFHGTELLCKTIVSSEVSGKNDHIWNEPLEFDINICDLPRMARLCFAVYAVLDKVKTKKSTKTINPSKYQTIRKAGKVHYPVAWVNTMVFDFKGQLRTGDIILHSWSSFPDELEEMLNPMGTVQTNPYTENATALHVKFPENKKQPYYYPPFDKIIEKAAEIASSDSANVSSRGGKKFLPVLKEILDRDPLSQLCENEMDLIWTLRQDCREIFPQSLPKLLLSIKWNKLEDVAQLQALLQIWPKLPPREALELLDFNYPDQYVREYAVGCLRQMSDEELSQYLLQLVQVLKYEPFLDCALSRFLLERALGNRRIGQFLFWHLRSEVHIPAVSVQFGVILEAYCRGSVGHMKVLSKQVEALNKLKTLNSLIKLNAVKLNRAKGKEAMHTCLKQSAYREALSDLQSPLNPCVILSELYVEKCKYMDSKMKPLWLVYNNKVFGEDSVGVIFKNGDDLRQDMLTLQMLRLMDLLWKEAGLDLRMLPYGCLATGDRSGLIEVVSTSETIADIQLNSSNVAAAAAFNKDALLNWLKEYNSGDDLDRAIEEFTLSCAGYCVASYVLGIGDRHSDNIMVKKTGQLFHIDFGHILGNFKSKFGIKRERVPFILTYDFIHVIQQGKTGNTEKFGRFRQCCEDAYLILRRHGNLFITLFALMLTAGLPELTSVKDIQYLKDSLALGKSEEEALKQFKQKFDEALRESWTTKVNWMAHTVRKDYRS
Sequence of PI3Kβ (P27986 whole entry partner): as the sequence (P27986 whole entry partner) above

PI3Kδ = PI3Kδ (Homo sapiens, UniProt O00329); conditions: cited from earlier work
Sequence of PI3Kδ (O00329 whole entry): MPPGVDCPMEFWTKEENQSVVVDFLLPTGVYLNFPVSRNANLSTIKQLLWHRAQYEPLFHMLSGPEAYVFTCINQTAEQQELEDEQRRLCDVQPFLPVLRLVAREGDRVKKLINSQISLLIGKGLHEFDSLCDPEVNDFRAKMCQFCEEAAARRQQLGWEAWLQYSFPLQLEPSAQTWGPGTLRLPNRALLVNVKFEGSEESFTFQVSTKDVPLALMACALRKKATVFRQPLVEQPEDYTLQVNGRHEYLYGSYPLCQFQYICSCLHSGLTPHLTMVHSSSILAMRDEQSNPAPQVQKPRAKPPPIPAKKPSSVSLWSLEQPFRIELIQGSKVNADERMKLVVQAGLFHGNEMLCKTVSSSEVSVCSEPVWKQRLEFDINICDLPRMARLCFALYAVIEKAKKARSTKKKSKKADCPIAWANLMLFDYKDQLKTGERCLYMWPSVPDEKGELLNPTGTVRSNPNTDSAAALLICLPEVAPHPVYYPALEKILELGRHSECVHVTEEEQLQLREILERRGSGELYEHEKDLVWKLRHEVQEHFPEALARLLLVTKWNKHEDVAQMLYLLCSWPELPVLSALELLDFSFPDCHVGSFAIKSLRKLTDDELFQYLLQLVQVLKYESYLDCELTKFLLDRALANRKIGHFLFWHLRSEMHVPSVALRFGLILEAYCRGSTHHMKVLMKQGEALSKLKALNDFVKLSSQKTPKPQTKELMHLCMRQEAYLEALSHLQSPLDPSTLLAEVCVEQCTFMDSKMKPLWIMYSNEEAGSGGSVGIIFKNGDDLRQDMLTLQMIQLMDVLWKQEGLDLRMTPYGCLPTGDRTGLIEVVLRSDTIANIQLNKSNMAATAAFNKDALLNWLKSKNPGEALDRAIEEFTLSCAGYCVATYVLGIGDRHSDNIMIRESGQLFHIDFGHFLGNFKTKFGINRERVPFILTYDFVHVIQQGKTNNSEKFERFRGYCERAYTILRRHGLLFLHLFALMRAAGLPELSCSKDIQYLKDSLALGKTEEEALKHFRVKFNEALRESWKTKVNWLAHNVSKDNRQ
Sequence of PI3Kδ (P27986 whole entry partner): as the sequence (P27986 whole entry partner) above

PI3Kγ = PI3Kγ (Homo sapiens, UniProt P48736); conditions: cited from earlier work
Sequence of PI3Kγ (P48736 whole entry): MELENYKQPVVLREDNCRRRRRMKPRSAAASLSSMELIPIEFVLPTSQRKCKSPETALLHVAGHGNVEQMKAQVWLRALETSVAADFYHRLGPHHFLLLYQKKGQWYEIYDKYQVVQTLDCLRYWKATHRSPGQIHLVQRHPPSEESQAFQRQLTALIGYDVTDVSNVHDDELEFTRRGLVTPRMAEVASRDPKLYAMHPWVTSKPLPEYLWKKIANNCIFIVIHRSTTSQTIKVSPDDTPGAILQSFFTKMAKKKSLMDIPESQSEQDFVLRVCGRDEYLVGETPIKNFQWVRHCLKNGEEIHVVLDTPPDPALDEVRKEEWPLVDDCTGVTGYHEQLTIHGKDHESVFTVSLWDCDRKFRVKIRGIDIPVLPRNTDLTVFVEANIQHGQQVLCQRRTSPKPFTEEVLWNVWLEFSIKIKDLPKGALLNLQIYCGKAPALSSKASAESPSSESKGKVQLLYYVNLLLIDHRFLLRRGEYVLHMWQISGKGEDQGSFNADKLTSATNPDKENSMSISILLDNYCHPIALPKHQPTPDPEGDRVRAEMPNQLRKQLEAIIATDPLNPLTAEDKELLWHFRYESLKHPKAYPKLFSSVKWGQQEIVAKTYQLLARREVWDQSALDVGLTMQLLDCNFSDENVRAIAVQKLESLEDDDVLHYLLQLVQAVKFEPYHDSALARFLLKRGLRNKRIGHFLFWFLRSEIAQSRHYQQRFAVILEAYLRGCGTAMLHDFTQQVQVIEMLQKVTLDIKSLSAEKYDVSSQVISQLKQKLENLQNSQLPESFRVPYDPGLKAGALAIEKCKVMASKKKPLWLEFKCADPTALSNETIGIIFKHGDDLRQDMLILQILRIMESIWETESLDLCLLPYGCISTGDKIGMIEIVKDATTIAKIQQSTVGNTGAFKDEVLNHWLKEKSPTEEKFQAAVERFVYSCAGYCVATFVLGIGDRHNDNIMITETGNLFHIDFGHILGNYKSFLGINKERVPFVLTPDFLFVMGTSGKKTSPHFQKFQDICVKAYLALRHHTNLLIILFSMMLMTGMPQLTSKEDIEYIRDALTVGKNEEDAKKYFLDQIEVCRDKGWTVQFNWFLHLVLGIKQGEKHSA

[5] = tested on: panel of 130 other kinases; conditions: Cloughesy et al., 2013; cited from earlier work
[6] = Clinical trial: safety, adverse events (CTCAE v4.0)
[7] = SAR408 200 mg once daily (N = 6)

Cc1nc(NC(=O)N2CCC[C@H]2C(N)=O)sc1-c1ccnc(C(C)(C)C(F)(F)F)c1 [BYL719]
cell death (% Trypan blue positive cells) [1]: induction of cell death was observed | PI3K/mTOR pathway inhibition (Western blot) (TS543 GBM cells): inhibited | IC50 (mTOR): > 9100 nM

CS(=O)(=O)N1CCN(Cc2cc3nc(-c4cccc5[nH]ncc45)nc(N4CCOCC4)c3s2)CC1 [GDC-0941]
cell death (% Trypan blue positive cells) [1]: induction of cell death was observed | PI3K/mTOR pathway inhibition (Western blot) (TS543 GBM cells): inhibited

Cc1c(CN2CCN(C(=O)[C@H](C)O)CC2)sc2c(N3CCOCC3)nc(-c3cnc(N)nc3)nc12 [GDC-0980]
cell death (% Trypan blue positive cells) [1]: induced dose dependent cell death; also recorded: induction of cell death | proliferation / growth inhibition [1]: inhibition of proliferation | cell death (% Trypan blue positive cells) [2]: induced dose dependent cell death; also recorded: induction of cell death | proliferation / growth inhibition [2]: inhibition of proliferation | cell death (% Trypan blue positive cells) [3]: induction of cell death; also recorded: induced cell death | proliferation / growth inhibition [3]: inhibition of proliferation

COc1ccc(-c2ccc3c(N4CCOCC4)nc(N4C[C@@H](C)O[C@@H](C)C4)nc3n2)cc1CO [KU-0063794]
cell death (% Trypan blue positive cells) [1]: no induction of cell death; also recorded: not sufficient to induce cell death | proliferation / growth inhibition [1]: proliferation arrest; also recorded: markedly impaired tumor cell proliferation | cell death (% Trypan blue positive cells) [2]: no induction of cell death | proliferation / growth inhibition [2]: proliferation arrest | cell death (% Trypan blue positive cells) [3]: no induction of cell death; also recorded: not sufficient to induce cell death | proliferation / growth inhibition [3]: proliferation arrest; also recorded: markedly impaired tumor cell proliferation | TORC1 signaling (pS6 Ser235/6 and Ser240/4) (H1703 cells; H1703, four hours): inhibited | TORC2 functions (pAkt Ser473) (H1703 cells; H1703, four hours): inhibited

NC1(c2ccc(-c3nc4ccn5c(=O)[nH]nc5c4cc3-c3ccccc3)cc2)CCC1 [MK-2206]
cell death induction, combination of Akt and mTOR inhibition ([1]; TS543, MK-2206 combined with 10 nM rapamycin, five days): marked increase in cell death induction | cell death (% Trypan blue positive cells) [1]: dose-dependent cell death | cell death (% Trypan blue positive cells) [3]: dose-dependent cell death | cell death induction in cells expressing drug-resistant AKT1 allele (W80-AKT1) ([3]; S5472 expressing AKT1 mutated at tryptophan 80): completely protected

COc1ccc(Cl)c(Nc2nc3ccccc3nc2NS(=O)(=O)c2cccc(NC(=O)C(C)(C)N)c2)c1 [SAR408, pilaralisib]
PI3K/mTOR pathway inhibition in tumor, Surgery 2 vs Surgery 1 (PI3K/mTOR pathway): Inhibition of the PI3K/mTOR Pathway | change in proliferation (Ki-67) compared to untreated control population (glioblastoma tumor cells; 200 mg/QD SAR245408 arm): not significantly different | cellular proliferation in tumor, Surgery 2 vs Surgery 1 (glioblastoma tumor cells; patients treated 10-28 days before surgery): Reduced Cellular Proliferation | TTP (time to progression), individual patients (recurrent glioblastoma; SAR408 200 mg/QD): 6.14 wks (2×) and 18.29 wks and 10.14 wks and 6 wks and 4.57 wks | median time to progression (recurrent glioblastoma; SAR245408 arm): 6.14 weeks | range of time to progression (recurrent glioblastoma; SAR245408 arm): 4.57-18.29 weeks | Discontinuation: Adverse Event or SAE unrelated to disease progression [4]: 0 n (%) | Discontinuation: Clinical disease progression per principal investigator [4]: 0 n (%) | Discontinuation: Disease progression per modified RANO [4]: 6 (100.0) n (%) | IC50 (PI3Kα): 48 nM | IC50 (PI3Kβ): 617 nM | IC50 (PI3Kδ): 10 nM | IC50 (PI3Kγ): 260 nM | IC50 (mTOR): > 15000 nM | inhibition of a panel of 130 other kinases [5]: do not significantly inhibit | Patients with any Grade 3/4 TEAE [6, 7]: 2 n (%) and 2 (33.3) n (%) | Patients with any Grade 3/4 treatment-emergent SAE [6, 7]: 1 (16.7) n (%) | Patients with any TEAE [6, 7]: 6 (100.0) n (%) | Patients with any TEAE leading to death [6, 7]: 0 n (%) | Patients with any TEAE leading to dose reduction or interruption [6, 7]: 0 n (%) | Patients with any TEAE leading to permanent treatment discontinuation [6, 7]: 0 n (%) | Patients with any related Grade 3/4 TEAE [6, 7]: 0 n (%) | Patients with any related Grade 3/4 treatment-emergent SAE [6, 7]: 0 n (%) | Patients with any related TEAE [6, 7]: 3 n (%) and 3 (50.0) n (%) | Patients with any related treatment-emergent SAE [6, 7]: 0 n (%) | Patients with any treatment emergent SAE [6, 7]: 1 n (%) and 1 (16.7) n (%) | TEAEs of ALT increased, AST increased, blood bilirubin increased or gamma-glutamyltransferase increased ([6]; SAR408 once daily cohort): No TEAEs | drug-related TEAE: fatigue ([6]; all cohorts of the drug pooled): 2 patients | tolerability of postoperative treatment ([6]; seventeen patients who resumed drug postoperatively): tolerated it well

Cc1ccc(NC(=O)c2ccc(CN3CCN(C)CC3)cc2)cc1Nc1nccc(-c2cccnc2)n1 [imatinib]
cell death (% Trypan blue positive cells) [1]: robust induction of cell death | cell death (% Trypan blue positive cells) [3]: will die | PDGFRA and downstream signaling (Western blot) (TS543 GBM cells; TS543): inhibits PDGFRA and downstream signaling | PDGFRA and downstream signaling (Western blot) (H1703 cells; H1703, 4 hours): robust inhibition of PGDFRA and downstream signaling
